In the NIST ThermoML archive (doi:10.1016/j.jct.2016.06.016):
Numbers after ± are expanded uncertainties.

Test: xn = mol fraction of the nth substance listed
Conditions: 100 kPa, Liquid; for viscosity: Concentric cylinders viscometry; for mass density: Vibrating tube method

CCOC(=O)CCC(=O)OCC [diethyl butanedioate] + CCCCO
Conditions | mass density [kg/m3] | viscosity [mPa·s]
288.15 K, x1 = 0.1 | 851.32 ± 0.81 | 2.665 ± 0.023
288.15 K, x1 = 0.2001 | 884.48 ± 0.81 | 2.382 ± 0.021
288.15 K, x1 = 0.3 | 913.45 ± 0.81 | 2.302 ± 0.02
288.15 K, x1 = 0.3999 | 938.87 ± 0.81 | 2.306 ± 0.021
288.15 K, x1 = 0.5 | 961.37 ± 0.81 | 2.342 ± 0.021
288.15 K, x1 = 0.6001 | 981.44 ± 0.81 | 2.405 ± 0.022
288.15 K, x1 = 0.6998 | 999.46 ± 0.82 | 2.515 ± 0.023
288.15 K, x1 = 0.7999 | 1015.94 ± 0.82 | 2.692 ± 0.025
288.15 K, x1 = 0.8997 | 1031 ± 0.83 | 2.934 ± 0.028
288.15 K, x1 = 1 | 1044.83 ± 0.84 | 3.195 ± 0.03
293.15 K, x1 = 0.1 | 847.26 ± 0.81 | 2.339 ± 0.02
293.15 K, x1 = 0.2001 | 880.14 ± 0.81 | 2.106 ± 0.019
293.15 K, x1 = 0.3 | 908.86 ± 0.81 | 2.041 ± 0.018
293.15 K, x1 = 0.3999 | 934.12 ± 0.81 | 2.045 ± 0.018
293.15 K, x1 = 0.5 | 956.51 ± 0.81 | 2.077 ± 0.019
293.15 K, x1 = 0.6001 | 976.5 ± 0.81 | 2.133 ± 0.02
293.15 K, x1 = 0.6998 | 994.45 ± 0.82 | 2.228 ± 0.021
293.15 K, x1 = 0.7999 | 1010.87 ± 0.82 | 2.38 ± 0.022
293.15 K, x1 = 0.8997 | 1025.85 ± 0.83 | 2.585 ± 0.024
293.15 K, x1 = 1 | 1039.63 ± 0.83 | 2.807 ± 0.027
298.15 K, x1 = 0.1 | 843.14 ± 0.81 | 2.072 ± 0.018
298.15 K, x1 = 0.2001 | 875.78 ± 0.81 | 1.877 ± 0.017
298.15 K, x1 = 0.3 | 904.32 ± 0.81 | 1.825 ± 0.017
298.15 K, x1 = 0.3999 | 929.42 ± 0.81 | 1.831 ± 0.017
298.15 K, x1 = 0.5 | 951.69 ± 0.81 | 1.861 ± 0.017
298.15 K, x1 = 0.6001 | 971.57 ± 0.81 | 1.914 ± 0.018
298.15 K, x1 = 0.6998 | 989.44 ± 0.82 | 2.003 ± 0.019
298.15 K, x1 = 0.7999 | 1005.79 ± 0.82 | 2.141 ± 0.02
298.15 K, x1 = 0.8997 | 1020.71 ± 0.83 | 2.318 ± 0.022
298.15 K, x1 = 1 | 1034.44 ± 0.83 | 2.491 ± 0.024
303.15 K, x1 = 0.1 | 838.99 ± 0.81 | 1.845 ± 0.016
303.15 K, x1 = 0.2001 | 871.41 ± 0.81 | 1.682 ± 0.015
303.15 K, x1 = 0.3 | 899.78 ± 0.81 | 1.64 ± 0.015
303.15 K, x1 = 0.3999 | 924.74 ± 0.81 | 1.649 ± 0.015
303.15 K, x1 = 0.5 | 946.87 ± 0.81 | 1.678 ± 0.016
303.15 K, x1 = 0.6001 | 966.65 ± 0.81 | 1.727 ± 0.016
303.15 K, x1 = 0.6998 | 984.43 ± 0.82 | 1.806 ± 0.017
303.15 K, x1 = 0.7999 | 1000.71 ± 0.82 | 1.925 ± 0.018
303.15 K, x1 = 0.8997 | 1015.58 ± 0.83 | 2.078 ± 0.02
303.15 K, x1 = 1 | 1029.25 ± 0.83 | 2.229 ± 0.022
308.15 K, x1 = 0.1 | 834.83 ± 0.81 | 1.65 ± 0.015
308.15 K, x1 = 0.2001 | 867.03 ± 0.81 | 1.515 ± 0.014
308.15 K, x1 = 0.3 | 895.21 ± 0.81 | 1.482 ± 0.014
308.15 K, x1 = 0.3999 | 920.02 ± 0.81 | 1.492 ± 0.014
308.15 K, x1 = 0.5 | 942.04 ± 0.81 | 1.52 ± 0.014
308.15 K, x1 = 0.6001 | 961.72 ± 0.81 | 1.564 ± 0.015
308.15 K, x1 = 0.6998 | 979.42 ± 0.82 | 1.635 ± 0.016
308.15 K, x1 = 0.7999 | 995.63 ± 0.82 | 1.741 ± 0.017
308.15 K, x1 = 0.8997 | 1010.45 ± 0.82 | 1.876 ± 0.018
308.15 K, x1 = 1 | 1024.08 ± 0.83 | 2.008 ± 0.02
313.15 K, x1 = 0.1 | 830.64 ± 0.81 | 1.49 ± 0.014
313.15 K, x1 = 0.2001 | 862.62 ± 0.81 | 1.379 ± 0.013
313.15 K, x1 = 0.3 | 890.63 ± 0.81 | 1.355 ± 0.013
313.15 K, x1 = 0.3999 | 915.3 ± 0.81 | 1.366 ± 0.013
313.15 K, x1 = 0.5 | 937.2 ± 0.81 | 1.394 ± 0.013
313.15 K, x1 = 0.6001 | 956.78 ± 0.81 | 1.437 ± 0.014
313.15 K, x1 = 0.6998 | 974.41 ± 0.82 | 1.502 ± 0.015
313.15 K, x1 = 0.7999 | 990.55 ± 0.82 | 1.596 ± 0.015
313.15 K, x1 = 0.8997 | 1005.31 ± 0.82 | 1.712 ± 0.017
313.15 K, x1 = 1 | 1018.9 ± 0.83 | 1.821 ± 0.018
318.15 K, x1 = 0.1 | 826.42 ± 0.81 | 1.337 ± 0.013
318.15 K, x1 = 0.2001 | 858.18 ± 0.81 | 1.245 ± 0.012
318.15 K, x1 = 0.3 | 886.02 ± 0.81 | 1.226 ± 0.012
318.15 K, x1 = 0.3999 | 910.54 ± 0.81 | 1.239 ± 0.012
318.15 K, x1 = 0.5 | 932.33 ± 0.81 | 1.266 ± 0.012
318.15 K, x1 = 0.6001 | 951.83 ± 0.81 | 1.307 ± 0.013
318.15 K, x1 = 0.6998 | 969.38 ± 0.82 | 1.367 ± 0.013
318.15 K, x1 = 0.7999 | 985.47 ± 0.82 | 1.451 ± 0.014
318.15 K, x1 = 0.8997 | 1000.18 ± 0.82 | 1.556 ± 0.015
318.15 K, x1 = 1 | 1013.72 ± 0.83 | 1.66 ± 0.017
323.15 K, x1 = 0.1 | 822.17 ± 0.81 | 1.218 ± 0.011
323.15 K, x1 = 0.2001 | 853.72 ± 0.81 | 1.142 ± 0.011
323.15 K, x1 = 0.3 | 881.38 ± 0.81 | 1.129 ± 0.011
323.15 K, x1 = 0.3999 | 905.78 ± 0.81 | 1.143 ± 0.011
323.15 K, x1 = 0.5 | 927.46 ± 0.81 | 1.169 ± 0.011
323.15 K, x1 = 0.6001 | 946.87 ± 0.82 | 1.208 ± 0.012
323.15 K, x1 = 0.6998 | 964.35 ± 0.82 | 1.264 ± 0.013
323.15 K, x1 = 0.7999 | 980.38 ± 0.82 | 1.342 ± 0.013
323.15 K, x1 = 0.8997 | 995.05 ± 0.82 | 1.435 ± 0.014
323.15 K, x1 = 1 | 1008.55 ± 0.83 | 1.523 ± 0.015
